The values that follow are results of earlier work, collected in US6586615B1, “α-aminoboronic acids prepared by novel synthetic methods” (Bristol-Myers Squibb Company, priority 2001, dated 2003).

The target in this data set is chymotrypsin (Bos taurus, UniProt P00766). Particulars: inhibits chymotrypsin; background, Matteson J. Am. Chem. Soc. 103, 5241-5242 (1981).

Each structure is given as a SMILES string.

With `CC(=O)NC(Cc1ccccc1)B(O)O` (stereo not shown) [Ac-boroPhe-OH], the Ki (usually the dissociation constant of the complex between target and ligand, obtained from inhibition or displacement) is 2.1 µM.
